Assay results published in patent US10808247B2, “Methods for treating neurological disorders using a synergistic small molecule and nucleic acids therapeutic approach” (Phio Pharmaceuticals Corp., priority 2015, dated 2020).

Experiments:
NF-κB p65 = NF-κB p65 nuclear translocation in NSC-34 immortalized motoneurons, immunoblot; assay type: cell-based; conditions: NSC-34 cells, 24 h
Description: (§1) FIGS. 4A-4F. SYN1 and SYN2 increase the expression and activity of NF-κB target genes, such as MnSOD in neurons. […] A commercially available kit, modified to detect MnSOD activity in primary neurons, was used. Neurons were exposed to 3 mM SYN1 or 300 nM SYN2 for 24 h. […] TNF-α was included as a reference. FIGS. 4B, 4D and 4F show SYN1 and SYN2 increase MnSOD protein expression. Mature primary neurons (FIG. 4B), SH-SY5Y cells (FIG. 4D), and NSC-34 cells (FIG. 4F) were treated for 24 h with the compounds. Thereafter, cells were lysed, and proteins were extracted and subjected to SDS-PAGE. Immunoblots were then performed following the instructions of the antibody manufacturer. ECL was used for detection. […] The effect of TNF exposure is provided for reference. […] Primary cortical neurons at 6 D.I.V. were pretreated for 24 h with compounds and then challenged with 80 μM of H2O2. […] SYN1 at 3 μM inhibited cell death by 100%. […] The protection exceeded 60% and extended up to a concentration of 1 μM. […] NSC-34 cells were treated for 24 h with the compounds. Thereafter, cells were lysed, and cytosolic and nuclear fractions were separated. Subsequently, SDS-PAGE and immunoblots were performed. ECL was used for detection. […] The effect of TNF exposure was provided for reference. […] ANOVA+Bonferroni's.

SOD-1-G93A ALS mouse = experiment: SOD-1-G93A ALS mouse: survival, weight, neurologic score; assay type: in vivo; conditions: for survival (Kaplan-Meier analysis): administration at the time of onset; for body weight lost / inhibition of body weight loss: at 120 days; for inhibition of body weight loss: versus control animals; for lifespan extension at 50% survival: male mice, 25 mg/kg IP daily from day 96
Description: FIGS. 6A-6D. Effect of SYN1 and SYN2 in SOD-1-G93A ALS mouse. The animals were received at day 70 and kept until day 96, at which time daily IP treatment was started with 25 mg/kg of the compounds. Weight and standard neurologic scores (N.S.) were assessed on alternate days. A N.S. of 4 triggered the exception (euthanized accordingly to humane practices). […] Data in FIGS. 6A and 6B document a 66% and an 81% lifespan extension for SYN1 and SYN2, respectively, at 50% survival in male mice. […] The average weight within the groups before the treatment was similar (inset to FIG. 6C). However, at 120 days, control animals lost on average 12% of the body weight (FIG. 6C). […] Although progression from N.S. 0 to 1 was delayed only by SYN1 (2 day delay, +30%), progression to higher N.S. was delayed by both agents (FIG. 6D). […] Control animals reached N.S.=2 at 30 days on average; treated animals reached N.S.=2 at day 46 or later on average. *P<0.05; **P<0.01.

Primary cortical neurons = experiment: Neurotoxicity induced by H2O2 in primary cortical neurons; assay type: cell-based; conditions: 24 h pretreatment, 80 μM H2O2
Description: as §1

MnSOD [1] = experiment: MnSOD activity in primary neurons (modified commercial kit); assay type: cell-based; conditions: 3 mM SYN1 or 300 nM SYN2 for 24 h
Description: as §1

HSP27 = experiment: Cytoplasmic chaperone expression by qPCR in SH-5YSY; assay type: cell-based; conditions: 24 h treatment
Description: (§2) FIG. 5. Effect of SYN1 on cytoplasmic chaperones expression. The expression of the genes listed in the graph was assessed using qPCR in SH-5YSY after 24 h treatment with SYN1.

HSP-dependent mRNAs = experiment: as above; assay type: cell-based; conditions: 24 h treatment
Description: as §2

HSP70-2 = experiment: as above; assay type: cell-based; conditions: 24 h treatment
Description: as §2

MnSOD [2] = experiment: MnSOD protein expression by immunoblot in neurons; assay type: cell-based; conditions: 24 h; for MnSOD expression by Western blot: NSC-34 cells; for MnSOD protein expression: mature primary neurons, SH-SY5Y cells and NSC-34 cells
Description: as §1

Compound	p65 nuclear presence (NF-κB p65)	delay of progression from N.S. 0 to 1 (SOD-1-G93A ALS mouse; 25 mg/kg IP daily)	delay of progression from N.S. 0 to 1, relative (SOD-1-G93A ALS mouse; 25 mg/kg IP daily)	time spent at N.S.1 (SOD-1-G93A ALS mouse; 25 mg/kg IP daily)	survival (Kaplan-Meier analysis) (SOD-1-G93A ALS mouse; 25 mg/kg IP daily)	body weight lost (SOD-1-G93A ALS mouse; 25 mg/kg IP daily)	inhibition of body weight loss (SOD-1-G93A ALS mouse)	lifespan extension at 50% survival (SOD-1-G93A ALS mouse)	inhibition of cell death (Primary cortical neurons; 3 μM)	MnSOD activity (MnSOD [1])	HSP27 gene expression (HSP27)	HSP-dependent mRNAs (HSP-dependent mRNAs)	HSP70-2 gene expression (HSP70-2)	MnSOD expression by Western blot (MnSOD [2])	MnSOD protein expression (MnSOD [2])	concentration of peak effect (Primary cortical neurons)	concentration up to which protection extended (Primary cortical neurons)	protection (Primary cortical neurons)
O=C(/C=C/Nc1ccccc1Br)c1ccc2c(c1)OCO2 [SYN1]	increased p65 nuclear presence	2 days	30%	increased the time spent at N.S.1	significantly extended survival	3%	75%	66%	100%	significantly increased	significantly up-regulated	significantly increased	significantly up-regulated	increased expression of MnSOD	increased MnSOD expression in all three kinds of neurons	–	–	–
Cc1cccnc1Nc1nc(-c2ccccn2)cs1 [SYN2]	increased p65 nuclear presence	–	–	increased the time spent at N.S.1	significantly extended survival	4%	65%	81%	–	significantly increased	–	–	–	increased expression of MnSOD	increased MnSOD expression in all three kinds of neurons	300 nM	≤ 1 µM	exceeded 60%
